Laboratory results from article PMC4286194 (Biochemical Journal, 2015).

Legend:
Assay type in all cases: cell-based, mouse
[1] = tested on: Bone-marrow-derived macrophages; experiment: IL-10 secretion (BIOPLEX) in LPS-stimulated macrophages; settings: 10 μM; LPS-stimulated
Procedure: The concentration of TNFα, IL-6, IL-10 and IL-12p40 in cell-free culture supernatants were measured using the Bio-Plex Pro Assay system (Bio-Rad).

[2] = tested on: Bone-marrow-derived macrophages; experiment: TLR signalling immunoblots (MAPKs, MSK1/2, CREB, IKKs, TBK1); settings: 3 μM bosutinib, 0.3 μM dasatinib or 0.5 μM HG-9-91-01
Procedure: RAW264.7 cells were cultured in DMEM containing 10% FBS, 2 mM glutamine and penicillin and streptomycin. […] Cells were treated for 1 h with or without inhibitors and then stimulated for up to 24 h with either 1 μg/ml Pam3CSK4 or 100 ng/ml LPS.
Cells were extracted in lysis buffer [50 mM Tris/HCl, pH 7.4, 1 mM EDTA, 1 mM EGTA, 50 mM NaF, 5 mM sodium pyrophosphate, 10 mM sodium β-glycerol 1-phosphate, 1 mM DTT, 1 mM sodium orthovanadate, 0.27 M sucrose, 1% (v/v) Triton X-100, 1 μg/ml aprotinin, 1 μg/ml leupeptin and 1 mM PMSF]. Cell extracts were clarified by centrifugation and protein concentrations were determined using the Bradford assay. To immunoprecipitate endogenous CRTC3, 1 mg of cell extract was incubated with 5 μg of anti-CRTC3 [13] covalently cross-linked on to Protein G–Sepharose. Immune complexes were washed three times with lysis buffer, eluted in 1% SDS and separated by SDS/PAGE. To detect proteins in cell lysates, 20 μg of protein extract was separated by SDS/PAGE. After transfer to PVDF membranes, proteins were detected by immunoblotting and visualized by treating the blots with ECL (GE Healthcare) followed by autoradiography.

[3] = tested on: Bone-marrow-derived macrophages; experiment: CREB-dependent gene transcription (qPCR); settings: macrophages
Procedure: mRNA was extracted from cells using the MicroElute Total RNA kit following the manufacturers’ instructions (Omega Bio-Tek). cDNA was generated from 0.5 μg of total RNA using the iScript cDNA synthesis kit and quantified by quantitative real-time PCR (qPCR) using the SsoFast EvaGreen Supermix on a CFX384 real-time system (Bio-Rad Laboratories). The relative expression of each gene was calculated from CT values using the Pfaffl method and was normalized against the mRNA levels of housekeeping genes including 18S RNA and GAPDH. Results are reported relative to untreated control cells, which were set to 1.

Compound	IL-10 production [1]	TLR-stimulated phosphorylation of ERK1/2, JNK1/2, p38α/β MAPKs, MSK1/2, IKKα/β, TBK1 and their direct substrates [2]	CREB-dependent gene transcription and IL-10 production [3]
C#Cc1cccc(Nc2ncnc3cc(OCCOC)c(OCCOC)cc23)c1 [Erlotinib, erlotinib]	failed to elevate IL-10 production	–	–
COc1cc2ncnc(Nc3ccc(F)c(Cl)c3)c2cc1OCCCN1CCOCC1 [Gefitinib, gefitinib]	failed to elevate IL-10 production	–	–
COc1ccc(N(C(=O)Nc2c(C)cccc2C)c2cc(Nc3ccc(N4CCN(C)CC4)cc3)ncn2)c(OC)c1 [HG-9-91-01]	–	occurred normally	–
Cc1ccc(NC(=O)c2ccc(CN3CCN(C)CC3)cc2)cc1Nc1nccc(-c2cccnc2)n1 [Imatinib, imatinib]	failed to elevate IL-10 production	–	fail to induce CREB-dependent gene transcription and to elevate IL-10 production
CS(=O)(=O)CCNCc1ccc(-c2ccc3ncnc(Nc4ccc(OCc5cccc(F)c5)c(Cl)c4)c3c2)o1 [Lapatinib, lapatinib]	failed to elevate IL-10 production	–	–
CCN(CC)CCNC(=O)c1c(C)[nH]c(/C=C2\C(=O)Nc3ccc(F)cc32)c1C [Sunitinib, sunitinib]	failed to elevate IL-10 production	–	–
COc1cc2/c(=N/c3ccc(Br)cc3F)nc[nH]c2cc1OCC1CCN(C)CC1 [Vandetinib, vandetinib]	failed to elevate IL-10 production	–	–
